Test results reported in PMC7512555 (mBio, 2020).

Experiments:
[1] = biological target: T1, TP0037 (TpD-LDH; rTP0037) (Treponema pallidum, UniProt O83080); assay: colorimetric NADH-formation kit assay (A575/A605); assay type: biochemical; settings: co-substrate NAD+, 37°C, 30 min
T1 construct: gene ldhD; full-length, residues 1-331, in pProEX-HTb (vector-derived tag); monomer 39,190 g/mol, homodimer in solution

[2] = biological target: the molecule itself; assay: static light scattering; Dynapro Nanostar, 25°C, storage buffer (20 mM HEPES pH 7.5, 100 mM NaCl, 2 mM BOG), 1.54 mg/ml, three technical replicates; DLS monitored simultaneously

C[C@H](O)C(=O)O [L-lactate]
colorimetric NADH-formation kit assay (A575/A605) ([1]; very weak substrate): only about one-thousandth of the activity was observed when using L-lactate as the substrate

C[C@@H](O)C(=O)O [D-lactate]
colorimetric NADH-formation kit assay (A575/A605) [1]: monitor the amount of NADH formation in the presence of NAD^+, D-lactate, and the enzyme

B1: TP0037, D-lactate dehydrogenase of Treponema pallidum (enzyme, UniProt O83080 1-331, looked up)
chain: MRCVVFNLREEEAPYVEKWKQSHPGVVVDTYEEPLTAKNKELLKGYEGLVVMQFLAMEDEVYDYMGACKLKVLSTRTAGFDMYNATLLKKHGIRLTNVPSYSPNAIGEYALAAALQLTRHAREIETFVRKRDFRWQKPILSKELRCSRVGILGTGRIGQAAARLFKGVGAQVVGFDPYPNDAAKEWLTYVSMDELLSTSDVISLHMPATKDSHHLINAKTIAQMKDGVYLVNTARGAVIDSQALLDSLDKGKIAGAALDAYEFEGPYIPKDNGNNPITDTVYARLVAHERIIYTPHIAFYTETAIENMVFNSLDACTTVLRGEPCAAEIKL
notes: TP0037 (D-lactate dehydrogenase), Treponema pallidum, amino acid residues 1 to 331, amplified from genomic DNA; called full-length in the results; also called rTP0037; TpD-LDH; source: E. coli BL21(DE3), purified to apparent homogeneity
stoichiometry N [2]: 2
